In ChEMBL document CHEMBL1148070, “Cytotoxic saponins from New Zealand Myrsine species” (1994):
≈ marks a conversion by molar mass, not a printed value. Calls of active or inactive are those of the source. No cut-off for these calls is given here.

Tests used:
Human alphaherpesvirus 1 = assay: Antiviral activity against HSV1 assessed as inhibition of virus-induced cytopathic effect 40 ug/disk; format: functional, organism-based
P388 = assay: Cytotoxicity against mouse P388 cells; format: functional; conditions: read-out: ID50 (the source's name)
Poliovirus 1 = assay: Antiviral activity against Human poliovirus 1 assessed as inhibition of virus-induced cytopathic effect 40 ug/disk; format: functional, organism-based

SMILES	inhibition (Human alphaherpesvirus 1)	IC50 (P388) [µg/mL]	inhibition (Poliovirus 1)
C[C@@H]1O[C@@H](O[C@H]2[C@H](O[C@H]3CO[C@@H](O[C@H]4CC[C@]5(C)[C@H]6CC[C@]78OC(=O)[C@@]9(CCC(C)(C)C[C@H]97)[C@H](O)C[C@@]8(C)[C@]6(C)CC[C@H]5C4(C)C)[C@H](O[C@@H]4O[C@H](CO)[C@@H](O)[C@H](O)[C@H]4O)[C@H]3O)O[C@H](CO)[C@@H](O)[C@@H]2O)[C@H](O)[C@H](O)[C@H]1O	Active	10.2 (≈ 9.49 µM)	Active
CC1(C)CC[C@]23C(O)O[C@@]4(CC[C@@H]5[C@@]6(C)CC[C@H](O[C@@H]7OC[C@H](O[C@@H]8O[C@H](CO)[C@@H](O)[C@H](O)[C@H]8O[C@@H]8OC[C@@H](O)[C@H](O)[C@H]8O)[C@H](O)[C@H]7O[C@@H]7O[C@H](CO)[C@@H](O)[C@H](O)[C@H]7O)C(C)(C)[C@@H]6CC[C@@]5(C)[C@]4(C)C[C@H]2O)[C@@H]3C1 (some centres undefined)	Active	7 (≈ 6.58 µM)	Active
CC1(C)CC[C@]23C(=O)O[C@@]4(CC[C@@H]5[C@@]6(C)CC[C@H](O[C@@H]7OC[C@H](O[C@@H]8O[C@H](CO)[C@@H](O)[C@H](O)[C@H]8O[C@@H]8OC[C@@H](O)[C@H](O)[C@H]8O)[C@H](O)[C@H]7O[C@@H]7O[C@H](CO)[C@@H](O)[C@H](O)[C@H]7O)C(C)(C)[C@@H]6CC[C@@]5(C)[C@]4(C)C[C@H]2O)[C@@H]3C1	Active	> 12.5	Active
C[C@@H]1O[C@@H](O[C@H]2[C@H](O[C@H]3CO[C@@H](O[C@H]4CC[C@]5(C)[C@H]6CC[C@]78OC[C@@]9(CCC(C)(C)C[C@H]97)[C@H](O)C[C@@]8(C)[C@]6(C)CC[C@H]5C4(C)C)[C@H](O[C@@H]4O[C@H](CO)[C@@H](O)[C@H](O)[C@H]4O)[C@H]3O)O[C@H](CO)[C@@H](O)[C@@H]2O)[C@H](O)[C@H](O)[C@H]1O	Active	0.85 (≈ 0.801 µM)	Active
CC1(C)[C@@H](O[C@@H]2OC[C@H](O[C@@H]3O[C@H](CO)[C@@H](O)[C@H](O)[C@H]3O[C@@H]3OC[C@@H](O)[C@H](O)[C@H]3O)[C@H](O)[C@H]2O[C@@H]2O[C@H](CO)[C@@H](O)[C@H](O)[C@H]2O)CC[C@]2(C)[C@H]3CC[C@]45OC[C@@]6(CC[C@](C)(C=O)C[C@H]64)[C@H](O)C[C@@]5(C)[C@]3(C)CC[C@@H]12 [ARDISIACRISPIN A]	Active	7 (≈ 6.6 µM)	Active
C[C@@H]1O[C@@H](O[C@H]2[C@H](O[C@H]3CO[C@@H](O[C@H]4CC[C@]5(C)[C@H]6CC[C@]78OC[C@@]9(CC[C@](C)(C=O)C[C@H]97)[C@H](O)C[C@@]8(C)[C@]6(C)CC[C@H]5C4(C)C)[C@H](O[C@@H]4O[C@H](CO)[C@@H](O)[C@H](O)[C@H]4O)[C@H]3O)O[C@H](CO)[C@@H](O)[C@@H]2O)[C@H](O)[C@H](O)[C@H]1O [ARDISIACRISPIN B]	Active	8.6 (≈ 8 µM)	Active
C[C@@H]1O[C@@H](O[C@H]2[C@H](O[C@H]3CO[C@@H](O[C@H]4CC[C@]5(C)[C@H]6CC[C@]78OC(O)[C@@]9(CCC(C)(C)C[C@H]97)[C@H](O)C[C@@]8(C)[C@]6(C)CC[C@H]5C4(C)C)[C@H](O[C@@H]4O[C@H](CO)[C@@H](O)[C@H](O)[C@H]4O)[C@H]3O)O[C@H](CO)[C@@H](O)[C@@H]2O)[C@H](O)[C@H](O)[C@H]1O (some centres undefined)	Active	> 12.5	Active
CC1(C)CC[C@]23CO[C@@]4(CC[C@@H]5[C@@]6(C)CC[C@H](O[C@@H]7OC[C@H](O[C@@H]8O[C@H](CO)[C@@H](O)[C@H](O)[C@H]8O[C@@H]8OC[C@@H](O)[C@H](O)[C@H]8O)[C@H](O)[C@H]7O[C@@H]7O[C@H](CO)[C@@H](O)[C@H](O)[C@H]7O)C(C)(C)[C@@H]6CC[C@@]5(C)[C@]4(C)C[C@H]2O)[C@@H]3C1 [LYSIKOKIANOSIDE 1]	Active	0.85 (≈ 0.812 µM)	Active
